{"source": "patent US20130295669A1", "about": "“METHOD FOR CONTROLLING BINDING OF CELLS TO A SUBSTRATE” (LONZA COLOGNE GMBH, priority 2010, published 2013)", "key": {"BM-MSCs": {"test_system": "BM-MSCs", "test": "Attachment of BM-MSCs to hydrophobic side of Lumox-biofoil bag", "format": "cell-based", "conditions": "10 μM, 48 h treatment", "method": "Colony and attached cells observed after 48 h treatment with <0.1% DMSO are shown. No significant attachment of cells could be observed.\nColony and attached cells observed after 48 h treatment with 10 μM Blebbistatin are shown. […] Thus, if compared to FIG. 6 (control), treatment with Blebbistatin results in an increased affinity of BM-MSCs to this surface."}, "[1]": {"test_system": "human Embryonic Stem Cells (hESCs)", "test": "Post-split attachment of hESCs on Matrigel-coated dishes in X-VIVO medium", "format": "cell-based", "method": "The cells were cultured in defined X-VIVO medium containing no serum or animal-derived components on culture dishes coated with Matrigel®. A: No treatment with inhibitor (control), B: Transient treatment with 10 μM Blebbistatin (left micrograph: 4-fold magnification, right micrograph: 10-fold magnification), C: Culture 1 day after withdrawal of Blebbistatin. The post-split attachment of hESCs in X-VIVO has been low (A: 5-15%). When the culture was split (EDTA passage), the medium was supplemented with 10 μM of Blebbistatin. This increased the attachment of hESCs dramatically (B: 80-95%) compared to the post-split attachment of Blebbistatin-free hESC culture in X-VIVO. In fact, even the individualized hESCs attached very well. The media of the culture was replaced after 24 h with Blebbistatin-free X-VIVO to see how the cells stay attached and proliferate without Blebbistatin."}, "[2]": {"test_system": "mesenchymal stem cells from bone marrow (BM-MSC)", "test": "BM-MSC attachment and proliferation on repellent Teflon foil", "format": "cell-based", "conditions": "10 μM", "method": "MSCs were cultured with 10 μM Bb for 4 days on repellent Teflon® foil and the cells attached to the foil were counted on day 4. Bars represent the number of cells per well. Control cultures: BM-MSCs in DMSO or PBS without inhibitor. […] Thus, BM-MSCs attach and proliferate on Teflon® foil.\nMSCs were cultured with 10 μM Bb on repellent Teflon® foil until confluency was reached, the cells attached to the foil were counted on day 6 after cell seeding. Bars represent the number of cells per well. Control cultures: BM-MSCs in DMSO or PBS without inhibitor."}, "[3]": {"test_system": "mesenchymal stem cells from bone marrow (BM-MSC)", "test": "BM-MSCs seeded on microcarriers for suspension culture", "format": "cell-based", "method": "BM-MSCs were seeded on microcarriers for suspension culture in presence or absence of 10 μM Blebbistatin and allowed to proliferate for 6 days. After 24 h incubation without agitation the culture was sampled to determine cell count, Glucose consumption and cell seeding. After 5 additional days of incubation with agitation Glucose consumption (A), Lactate production (B), cell count (C) and cell seeding on carriers (DAPI-stain of cells on carrier, FIG. 11) were determined again. […] Accordingly, Blebbistatin has a protective effect on the cells resulting in enhanced proliferation after 6 days growth on microcarriers."}, "[4]": {"test_system": "human pluripotent stem cells", "conditions": "clonal density and suspension conditions; cited from earlier work"}, "[5]": {"test_system": "stem cells from cord blood (CB-USSC)", "test": "CB-USSC attachment and proliferation on repellent Teflon foil", "format": "cell-based", "conditions": "10 μM", "method": "USSCs were cultured with 10 μM Bb for 4 days on repellent Teflon® foil and the cells attached to the foil were counted on day 4. Bars represent the number of cells per well. Control cultures: CB-USSCs in DMSO or PBS without inhibitor. […] Thus, CB-USSCs attach and proliferate on Teflon® foil.\nUSSCs were cultured with 10 μM Bb on repellent Teflon® foil until confluency was reached, the cells attached to the foil were counted on day 6 after cell seeding. Bars represent the number of cells per well. Control cultures: CB-USSCs in DMSO or PBS without inhibitor.\nUSSCs were cultured with 10 μM Bb on repellent Teflon® foil dish and counted on day 4 after cell seeding. Bars represent the number of cells per well. Control cultures: CB-USSCs in DMSO or PBS without inhibitor. […] USSC attachment and proliferation on Teflon® foil in serum-reduced (EGM2) media is enhanced by myosin inhibition.\nUSSCs were cultured with 10 μM Bb on repellent Teflon® foil dish and counted on day 4 after cell seeding. Bars represent the number of cells per well. Control cultures: CB-USSCs in DMSO or PBS without inhibitor."}, "[6]": {"test_system": "mesenchymal stem cells from bone marrow (BM-MSCs)", "test": "Apoptosis by Annexin V staining and FACS", "format": "cell-based", "method": "(§1) Cell aggregation (A), cell survival (B) and apoptosis (C) were assayed in presence or absence of different Blebbistatin concentrations up to seven days. ROCK inhibitor (Y-27532) was used as a positive control. Cells were added to deep-wells not supporting adherent growth. Different concentrations of Blebbistatin and Y-27632 were tested in suspension (deep-well, 130 RPM) and adhesion (six-well) culture on BM-MSCs (media containing 10% FBS).\n(§2) B: Live cells were quantified by FACS using dye-exclusion assay (propidium iodide). […] The survival-enhancing effect of Blebbistatin appeared concentration dependent peaking at 10 μM and decreasing at both higher and lower concentrations of Blebbistatin. C: Apoptotic cells were quantified by FACS using Annexin V-assay (propidium iodide)."}, "[7]": {"test_system": "mesenchymal stem cells from bone marrow (BM-MSC)", "test": "Dislocation of BM-MSCs with Trypsin/EDTA after pretreatment, and reseeding", "format": "cell-based", "conditions": "for effect against cell dislocation and clumping: 3 min Trypsin/EDTA; for cell proliferation (yield and viability) after reseeding: pretreatment before dislocation, 7 days in drug-free medium, 5000 cells/cm^2", "method": "Subconfluent BM-MSCs were subjected to 4 h pretreatment (10 μM Blebbistatin or 10 μM Y-27632 vs control) and subsequent incubation for 3 min. with Trypsin/EDTA at 37° C. Cell counts were determined after dislocation of the cells from the surface of tissue culture flasks without specific coating (A). […] Dislocated cells are devoid of aggregates in drug-treated condition. […] Cells were reseeded (all conditions at same density: 5000 cells/cm^2) and cultured for additional 7 days in drug-free medium. After 7 days cell counts (B) and viability (C) were determined. […] An increase in cell proliferation (yield and viability) by Blebbistatin and less for Y-27632 treatment before dislocation in the subsequent drug-free passage (day 7) was also observed."}, "[8]": {"test_system": "mesenchymal stem cells from bone marrow (BM-MSCs)", "format": "cell-based", "method": "as §1, with “FBS). […] B: Live cells were quantified by FACS using dye-exclusion assay (propidium iodide). […] The survival-enhancing effect of Blebbistatin appeared concentration dependent peaking at 10 μM and decreasing at both higher and lower concentrations of Blebbistatin. C: Apoptotic cells were quantified by FACS using Annexin V-assay (propidium iodide).” for “FBS).”"}, "[9]": {"test_system": "human embryonal stem cells (hEST)", "test": "Cryopreservation recovery of human embryonal stem cells", "format": "cell-based", "description": "Usually only cell clusters can be cryopreserved, but not single ES cells.\nMoreover, adding Blebbistatin before freezing is beneficial for cryopreserving single hESCs."}, "[10]": {"test_system": "stem cells from cord blood (CB-USSCs)", "test": "CB-USSCs on PTFE vessel material", "format": "cell-based", "conditions": "10 μM, 3 days on PTFE-vessel material", "method": "USSCs were cultured with 10 μM Bb for 3 days on repellent PTFE-vessel material compared to control cultures."}, "[11]": {"test_system": "mesenchymal stem cells from bone marrow (BM-MSCs)", "test": "Cell aggregation of BM-MSCs in suspension (deep-well) culture", "format": "cell-based", "conditions": "for cell clustering: suspension deep-well", "method": "as §1, §2"}, "BM-MSC cultures": {"test_system": "BM-MSC cultures", "test": "Cell cycle profiles (G1/G0 and G2) by propidium iodide FACS with continuous BrdU incorporation", "format": "cell-based", "conditions": "suspension/shaking culture in deep-wells, up to 3 days", "description": "(§3) BM-MSC cultures were allowed to incorporate BrdU continuously and were sampled at different points of time (up to 3 days). Most cells are in G1/G0 phase (very dense culture), but there are also some G2-cells present. Absence of >4N cells (no multinucleated cells detected).\nas §3, with “also” for “also some”, “detected). During continuous treatment in adherent T-flasks culture (G2/M) slight slowing down of the cell cycle was observed.” for “detected).”"}, "[12]": {"conditions": "deep well culture, up to seven days, overall statement"}}}
{"smiles": "Cc1ccc2c(c1)C(=O)C1(O)CCN(c3ccccc3)C1=N2", "note": "(stereo not drawn) [Blebbistatin]", "values": [{"measurement": "cells attached to hydrophobic surface", "setting": "BM-MSCs", "value": "A significant number of cells is attached"}, {"measurement": "post-split attachment of hESCs", "setting": "[1]; 10 μM, EDTA passage, X-VIVO medium, Matrigel", "value": "80-95%"}, {"measurement": "attachment and proliferation after withdrawal of Blebbistatin", "setting": "[1]; medium replaced after 24 h, 1 day after withdrawal", "value": "no significant changes could be observed"}, {"measurement": "cell yield (cells attached to foil per well)", "setting": "[2]; day 4", "value": "significant increase in cell yield"}, {"measurement": "confluency on Teflon foil", "setting": "[2]; day 6", "value": "do not form a completely confluent layer"}, {"measurement": "cell yield (cells attached to foil per well)", "setting": "[2]; day 6 after cell seeding", "value": "No differences in cell yield"}, {"measurement": "cell seeding on microcarriers", "setting": "[3]; 10 μM, after 24 h without agitation", "value": "markedly increased"}, {"measurement": "Glucose consumption", "setting": "[3]; 10 μM, after 6 days", "value": "no effect"}, {"measurement": "Lactate production", "setting": "[3]; 10 μM, after 6 days", "value": "no effect"}, {"measurement": "cell number", "setting": "[3]; 10 μM, after 6 days on microcarriers", "value": "significantly increased"}, {"measurement": "cells adhering to microcarriers (DAPI-stain micrographs)", "setting": "[3]; after 6 days of incubation", "value": "much more cells adhere to the microcarriers"}, {"measurement": "survival rate of human pluripotent stem cells", "setting": "[4]", "value": "increases the survival rate"}, {"measurement": "cell yield (cells attached to foil per well)", "setting": "[5]; day 4", "value": "highly significant increase in cell yield"}, {"measurement": "proliferation (cells per well)", "setting": "[5]; day 4, low serum EGM2+Dex-media (3% serum)", "value": "significantly enhanced proliferation"}, {"measurement": "cell yield (cells per well)", "setting": "[5]; day 4, serum-free MSCGM-CD medium", "value": "No apparent increase in cell yield"}, {"measurement": "confluency on Teflon foil", "setting": "[5]; day 6", "value": "form confluent layers"}, {"measurement": "cell yield (cells attached to foil per well)", "setting": "[5]; day 6 after cell seeding", "value": "significant increase in cell yield"}, {"measurement": "concentration of greatest anti-apoptotic effect", "setting": "[6]", "value": 10, "unit": "µM"}, {"measurement": "apoptotic cells (Annexin V-assay)", "setting": "[6]; 10 μM, versus DMSO, PBS controls", "value": "protected against apoptosis"}, {"measurement": "anti-apoptotic effect", "setting": "[6]; below 5 μM", "value": "merely a limited effect"}, {"measurement": "apoptosis", "setting": "[6]; [12]", "value": "decreases apoptosis"}, {"measurement": "cell death in suspension culture (AnnexinV staining)", "setting": "[6]; suspension/shaking conditions", "value": "eliminates cell death in suspension culture"}, {"measurement": "anti-apoptotic effect relative to Y-27632", "setting": "[6]; various inhibitor concentrations", "value": "comparable or stronger than that of Y-27632"}, {"measurement": "effect against cell dislocation and clumping", "setting": "[7]; 10 μM, 4 h pretreatment", "value": "protective effects against cell dislocation and clumping"}, {"measurement": "cell counts dislocated from tissue culture flasks", "setting": "[7]; 10 μM, 4 h pretreatment, 3 min Trypsin/EDTA at 37° C.", "value": "Fewer cells are dislocated"}, {"measurement": "cell proliferation (yield and viability) after reseeding", "setting": "[7]", "value": "enhanced proliferation and viability"}, {"measurement": "optimum concentration for eliminating cell death", "setting": "[8]", "value": 10, "unit": "µM"}, {"measurement": "cell survival", "setting": "[8]; [12]", "value": "enables cell survival"}, {"measurement": "cell death rates (propidium iodide, FACS)", "setting": "[8]; especially at 10-50 μM, adhesive/static or suspension/shaking", "value": "significantly eliminates cell death"}, {"measurement": "concentration at which survival-enhancing effect peaks", "setting": "[8]; suspension, decreasing at higher and lower concentrations", "value": 10, "unit": "µM"}, {"measurement": "cryopreservation recovery of single hESCs", "setting": "[9]", "value": "increases the cryopreservation recovery of single hESCs to the comparable level of the recovery of hESC clusters"}, {"measurement": "effect of adding before freezing on cryopreserving single hESCs", "setting": "[9]; added before freezing", "value": "beneficial"}, {"measurement": "cell spreading and aggregate formation", "setting": "[10]", "value": "Markedly enhanced cell spreading but no aggregate formation"}, {"measurement": "cell clustering", "setting": "[11]; 10 μM", "value": "prevents cell clustering"}, {"measurement": "cell aggregation", "setting": "[11]; [12]", "value": "prevents or at least greatly reduces cell aggregation"}, {"measurement": "cell clustering", "setting": "[11]; less than 10 μM", "value": "formed a single aggregate"}, {"measurement": "effect on cell cycle", "setting": "BM-MSC cultures", "value": "no significant effect"}]}
{"smiles": "C[C@@H](N)[C@H]1CC[C@H](C(=O)Nc2ccncc2)CC1", "note": "[Y-27632]", "values": [{"measurement": "effect against cell dislocation and clumping", "setting": "[7]; 10 μM, 4 h pretreatment", "value": "protective effects against cell dislocation and clumping"}, {"measurement": "cell proliferation (yield and viability) after reseeding", "setting": "[7]", "value": "less"}]}
